Measured values reported in US10428055B2, “Substituted piperidines having GPR119 agonistic activity” (DONG-A ST CO., LTD., priority 2014, dated 2019).

Target: T1, Human GPR119 (Homo sapiens, UniProt Q8TDV5)
T1 construct: host or cells: HEK293 (ATCC)
T1 sequence (Q8TDV5 1-335): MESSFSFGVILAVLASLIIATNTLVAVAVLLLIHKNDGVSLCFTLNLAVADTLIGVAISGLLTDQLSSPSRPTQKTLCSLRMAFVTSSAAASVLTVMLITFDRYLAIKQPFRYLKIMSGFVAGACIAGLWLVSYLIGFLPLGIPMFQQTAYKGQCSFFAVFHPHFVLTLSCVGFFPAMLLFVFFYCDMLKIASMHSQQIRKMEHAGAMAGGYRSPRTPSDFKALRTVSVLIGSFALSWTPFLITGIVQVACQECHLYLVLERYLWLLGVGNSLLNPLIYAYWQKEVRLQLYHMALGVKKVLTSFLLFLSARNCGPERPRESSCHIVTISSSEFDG
Assay: Human GPR119 activation assay (cAMP, HTRF)
Format: cell-based
Details: 1 h, HEK293 cells transiently expressing human GPR119, relative to maximum effect of OEA, read-out: hGPR119 activation ability (cAMP assay) Relative Response % vs OEA; for Emax at 0.001 µM: 1 nM; for Emax at 0.01 µM: 10 nM
Source text: <Experimental Example 1>Human GPR119 activation assay
Human GPR119 was temporarily expressed on cells, thereby quantifying the amount of cyclic adenosine 3′,5′-monophosphate (cAMP) increased upon activating GPR119 by the compound of the present invention, using the product from Cysbio, by a method of HTRF (homogeneous time resolved fluorescence), and such quantification was used to refer to efficacy on GPR119 activation.
Human GPR119 expression vector (Origene) was overexpressed in […] renal epithelial cells (HEK293) (ATCC), and the cells were stabilized for 48 hours. With a solution of 11.1 mM glucose, 0.1% bovine serum albumin, and 0.5 mM IBMX (3-isobutyl-1-methylxanthine) which is a phosphodiesterase inhibitor being added to a KRBH (Krebs-Ringer Bicarbonate HEPES; Hou ZQ. et al., Mol Cell Endocrinol, 2008(291):71-78) buffer, the cells were pre-treated for 10 minutes. Thereafter, the cells were treated with the same solution containing a drug for 60 minutes, then the supernatant was removed, and the increase in cAMP in cells was quantified using a Cysbio cAMP HiRange kit.
As to the maximum efficacy of compounds tested, multiple concentration assessment for the compounds of the present invention was carried out, thereby assessing the relative activation level (%) to the maximum effect of oleoylethanolamide (OEA), an endogenous ligand of GPR119.

| SMILES | Emax at 0.001 µM | Emax at 0.01 µM |
| --- | --- | --- |
| CC(C)c1noc(N2CCC(CCCOc3cc(F)c(-c4noc(CO)n4)c(F)c3)CC2)n1 [Example 41, (3-(2,6-difluoro-4-(3-(1-(3-isopropyl-1,2,4-oxadiazol-5-yl)piperidin-4-yl)propoxy)phenyl)-1,2,4-oxadiazol-5-yl)methanol] | 74.4% | 203% |
| COCc1nc(-c2c(F)cc(OCCCC3CCN(c4ncc(-c5noc(CC(C)C)n5)cn4)CC3)cc2F)no1 [Example 34, 3-(2,6-difluoro-4-(3-(1-(5-(5-isobutyl-1,2,4-oxadiazol-3-yl)pyrimidin-2-yl)piperidin-4-yl)propoxy)phenyl)-5-(methoxymethyl)-1,2,4-oxadiazole] | 82.1% | 134% |
| CCCc1nc(-c2c(F)cc(OCCCC3CCN(c4ncc(CC)cn4)CC3)cc2F)no1 [Example 14, 3-(4-(3-(1-(5-ethylpyrimidin-2-yl)piperidin-4-yl)propoxy)-2,6-difluorophenyl)-5-propyl-1,2,4-oxadiazole] | 96% | 131% |
| CC(C)Cc1nc(-c2cnc(N3CCC(CCCOc4cc(F)c(C5=NC[C@@H](C)O5)c(F)c4)CC3)nc2)no1 [Example 9, (R)-3-(2-(4-(3-(3,5-difluoro-4-(5-methyl-4,5-dihydrooxazol-2-yl)phenoxy)propyl)piperidin-1-yl)pyrimidin-5-yl)-5-isobuty-1,2,4-oxadiazole] | 97.1% | 241% |
| CCCc1noc(N2CCC(CCCOc3cc(F)c(-c4nnc(C(C)C)o4)c(F)c3)CC2)n1 [Example 54, 5-(4-(3-(3,5-difluoro-4-(5-isopropyl-1,3,4-oxadiazol-2-yl)phenoxy)propyl)piperidin-1-yl)-3-propyl-1,2,4-oxadiazole] | 75.1% | 241% |
| CCc1nnc(-c2c(F)cc(OCCCC3CCN(c4cnc(Cl)cn4)CC3)cc2F)o1 [Example 50, 2-(4-(3-(1-(5-chloropyrazin-2-yl)piperidin-4-yl)propoxy)-2,6-difluorophenyl)-5-ethyl-1,3,4-oxadiazole] | 120% | 308% |
| CCc1cnc(N2CCC(CCCOc3cc(F)c(-c4nc(CC)cs4)c(F)c3)CC2)nc1 [Example 66, 4-ethyl-2-(4-(3-(1-(5-ethylpyrimidin-2-yl)piperidin-4-yl)propoxy)-2,6-difluorophenyl) thiazole] | 95.6% | 120% |
| CCCCCc1cnc(N2CCC(CCCOc3cc(F)c(-c4nnc(C(C)C)s4)c(F)c3)CC2)nc1 [Example 62, 2-(2,6-difluoro-4-(3-(1-(5-pentylpyrimidin-2-yl)piperidin-4-yl)propoxy)phenyl)-5-isopropyl-1,3,4-thiadiazole] | 88.8% | 169% |
| CC(C)c1nnc(-c2c(F)cc(OCCCC3CCN(c4ccc(C(F)(F)F)cn4)CC3)cc2F)s1 [Example 65, 2-(2,6-difluoro-4-(3-(1-(5-(trifluoromethyl)pyridin-2-yl)piperidin-4-yl)propoxy)phenyl)-5-isopropyl-1,3,4-thiadiazole] | 78.1% | 189% |
| CC(C)Cc1nc(-c2cnc(N3CCC(CCCOc4cc(F)c(-c5noc(C(C)(C)CO)n5)c(F)c4)CC3)nc2)no1 [Example 36, 2-(3-(2,6-difluoro-4-(3-(1-(5-(5-isobutyl-1,2,4-oxadiazol-3-yl)pyrimidin-2-yl)piperidin-4-yl)propoxy)phenyl)-1,2,4-oxadiazol-5-yl)-2-methylpropan-1-ol] | 66.4% | 174% |
| CC(C)c1noc(N2CCC(CCCOc3cc(F)c(C4=N[C@H](C)CO4)c(F)c3)CC2)n1 [Example 10, (R)-5-(4-(3-(3,5-difluoro-4-(4-methyl-4,5-dihydrooxazol-2-yl)phenoxy)propyl)piperidin-1-yl)-3-isopropyl-1,2,4-oxadiazole] | 192% | 266% |
| CCCc1cnc(N2CCC(CCCOc3cc(F)c(-c4nnc(C(C)C)s4)c(F)c3)CC2)nc1 [Example 61, 2-(2,6-difluoro-4-(3-(1-(5-propylpyrimidin-2-yl)piperidin-4-yl)propoxy)phenyl)-5-isopropyl-1,3,4-thiadiazole] | 98.1% | 186% |
| CCc1cnc(N2CCC(CCCOc3cc(F)c(C4=NCCO4)c(F)c3)CC2)nc1 [Example 1, 2-(4-(3-(1-(5-ethylpyrimidin-2-yl)piperidin-4-yl)propoxy)-2,6-difluorophenyl)-4,5-dihydrooxazole] | 50.7% | 116% |
| CCCc1noc(N2CCC(CCCOc3cc(F)c(-c4nnc(CC)o4)c(F)c3)CC2)n1 [Example 53, 5-(4-(3-(3,5-difluoro-4-(5-ethyl-1,3,4-oxadiazol-2-yl)phenoxy)propyl)piperidin-1-yl)-3-propyl-1,2,4-oxadiazole] | 94.3% | 154% |
| CCc1cnc(N2CCC(CCCOc3cc(F)c(-c4noc(C[C@H](C)O)n4)c(F)c3)CC2)nc1 [Example 21, (S)-1-(3-(4-(3-(1-(5-ethylpyrimidin-2-yl)piperidin-4-yl)propoxyl)-2,6-difluorophenyl)-1,2,4-oxadiazol-5-yl) propan-2-ol] | 160% | 336% |
| CCc1cnc(N2CCC(CCCOc3cc(F)c(C4=NC[C@@H](CO)O4)c(F)c3)CC2)nc1 [Example 8, (S)-(2-(4-(3-(1-(5-ethylpyrimidin-2-yl)piperidin-4-yl)propoxy)-2,6-difluorophenyl)-4,5-dihydrooxazol-5-yl)methanol] | 144% | 393% |
| CC(C)c1nc(N2CCC(CCCOc3cc(F)c(-c4nnc(C(C)C)o4)c(F)c3)CC2)no1 [Example 59, 3-(4-(3-(3,5-difluoro-4-(5-isopropyl-1,3,4-oxadiazol-2-yl)phenoxy)propyl)piperidin-1-yl)-5-isopropyl-1,2,4-oxadiazole] | 140% | 329% |
| CCc1cnc(N2CCC(CCCOc3cc(F)c(-c4noc(CCO)n4)c(F)c3)CC2)nc1 [Example 18, 2-(3-(4-(3-(1-(5-ethylpyrimidin-2-yl)piperidin-4-yl)propoxy)-2,6-difluorophenyl)-1,2,4-oxadiazol-5-yl)ethan-1-ol] | 303% | 436% |
| CC(C)c1nnc(-c2c(F)cc(OCCCC3CCN(c4ncc(C(F)(F)F)cn4)CC3)cc2F)s1 [Example 64, 2-(2,6-difluoro-4-(3-(1-(5-(trifluoromethyl)pyrimidin-2-yl)piperidin-4-yl)propoxy)phenyl)-5-isopropyl-1,3,4-thiadiazole] | 77% | 179% |
| CCc1cnc(N2CCC(CCCOc3cc(F)c(C4=NCC(C)(C)O4)c(F)c3)CC2)nc1 [Example 6, 2-(4-(3-(1-(5-ethylpyrimidin-2-yl)piperidin-4-yl)propoxy)-2,6-difluorophenyl)-5,5-dimethyl-4,5-dihydrooxazole] | 33.5% | 102% |
| CCc1cnc(N2CCC(CCCOc3cc(F)c(-c4nnc(NC(C)C)o4)c(F)c3)CC2)nc1 [Example 45, 5-(4-(3-(1-(5-ethylpyrimidin-2-yl)piperidin-4-yl)propoxy)-2,6-difluorophenyl)-N-isopropyl-1,3,4-oxadiazol-2-amine] | 156% | 330% |
